According to US20100029654A1, “CARDIOVASCULAR COMPOSITIONS AND USE OF THE SAME FOR THE TREATMENT OF ALZHEIMER'S DISEASE” (MOUNT SINAI SCHOOL OF MEDICINE, priority 2006, published 2010):
Structures can show the parent of a compound that is named as a salt. Where two headings read alike, the source gives them in different places.

What was measured:
[1] = tested on: Aβ1-42; assay: Aβ1-42 content in conditioned medium of primary cortico-hippocampal neuron cultures from Tg2576 mice (ELISA; primary and secondary dose-response screening); type: cell-based, mouse; conditions: for Ab1-42 (% of ctl) / activity at 100 µM: drug 100 μM; for activity at 100 µM: Mus musculus, Neuron, 24 h, read-out: Ab1-42 (% of ctl); for reducing Aβ1-42: <85% of ctl
Method in brief: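 Primary cortico-hippocampal neurons from embryonic Tg2576 mouse brain were seeded on poly-D-lysine-coated 96-well plates at 1.0×10^5 cells per well in serum-free Neurobasal medium with 2% B27, 0.5 mM L-glutamine and 1% penicillin-streptomycin. For primary screening, duplicate wells received 100 μM drug (1% DMSO final). Vehicle-treated cultures served as controls, and Aβ1-42 in conditioned medium was measured by commercial ELISA.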

[2] = tested on: Aβ1-40; assay: Aβ1-40 content in conditioned medium of primary cortico-hippocampal neuron cultures from Tg2576 mice (ELISA; primary and secondary dose-response screening); type: cell-based, mouse; conditions: for Ab1-40 (% of ctl) / activity at 100 µM: drug 100 μM; for activity at 100 µM: Mus musculus, Neuron, 24 h, read-out: Ab1-40 (% of ctl); for reduced Aβ1-40: <85% of ctl
Method in brief: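 Primary cortico-hippocampal neurons from embryonic Tg2576 mice were plated at 1.0×10^5 cells per well on poly-D-lysine-coated 96-well plates in Neurobasal with 2% B27, 0.5 mM L-glutamine and 1% penicillin-streptomycin. Cultures received drug in 1% DMSO, and Aβ1-40 in the conditioned medium was measured by BioSource ELISA 24 hours after treatment, relative to vehicle controls.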

[3] = tested on: primary cortico-hippocampal neuron cultures; assay: MTT in primary screening
[4] = tested on: primary cortico-hippocampal neuron cultures; assay: lactate dehydrogenase (LDH) activity assay in parallel neuron cultures
Protocol: For in vitro treatments drugs available from “The Spectrum Collection” in stocks of 10 mM in DMSO were applied directly to cultures to the desired concentrations (final 1% DMSO); control primary neuron cultures from Tg2576 embryos were treated with vehicle resulting in a final 1% DMSO.
Cell viability was assessed using a commercial available LDH assay kit according to the manufacture's instruction (Promega).

[5] = Primary Screening, table sorted by Aβ1-40
[6] = primary screening, Tg2576 neuron cultures, table sorted by Aβ1-42
[7] = primary screening, table sorted by Aβ1-42

For CCOc1ccccc1OCCN[C@H](C)Cc1ccc(OC)c(S(N)(=O)=O)c1.Cl [Tamsulosin Hydrchloride], the “Ab1-42 (% of ctl)” value [1, 5] was 91.8 % of ctl, the “Ab1-42 (% of ctl)” value [1, 6] was 91.8 % of ctl and the “Ab1-40 (% of ctl)” value [2, 5] was 106.5 % of ctl. The “Ab1-40 (% of ctl)” value [2, 6] was 106.5 % of ctl, the “MTT (% of ctl)” value [3, 5] was 96.1 % of ctl and the “MTT (% of ctl)” value [3, 7] was 96.1 % of ctl. For the same molecule, the “LDH (% of ctl)” value [4, 5] was 102.2 % of ctl and the “LDH (% of ctl)” value [4, 7] was 102.2 % of ctl.

CCCc1nc2c(C)cc(-c3nc4ccccc4n3C)cc2n1Cc1ccc(-c2ccccc2C(=O)O)cc1 [Telmisartan] showed an activity at 100 µM [1, 5] of 112%, an activity at 100 µM [1, 6] of 112% and an activity at 100 µM [2, 5] of 91.1%. For the same molecule, the activity at 100 µM [2, 6] was 91.1%, the “MTT (% of ctl)” value [3, 5] was 109.4 % of ctl and the “MTT (% of ctl)” value [3, 7] was 109.4 % of ctl. The “LDH (% of ctl)” value [4, 5] was 111.3 % of ctl and the “LDH (% of ctl)” value [4, 7] was 111.3 % of ctl.

Molecule COc1ccc2cc1Oc1ccc(cc1)C[C@H]1c3cc(c(OC)cc3CCN1C)Oc1c(OC)c(OC)cc3c1[C@H](C2)N(C)CC3 [Tetrandrine] has an activity at 100 µM [1, 5] of 25.2%, an activity at 100 µM [1, 6] of 25.2% and an activity at 100 µM [2, 5] of 4.5%. For the same molecule, the activity at 100 µM [2, 6] was 4.5%, the “MTT (% of ctl)” value [3, 5] was 112.5 % of ctl and the “MTT (% of ctl)” value [3, 7] was 112.5 % of ctl. The “LDH (% of ctl)” value [4, 5] was 117.6 % of ctl and the “LDH (% of ctl)” value [4, 7] was 117.6 % of ctl.

Cn1cnc2c1c(=O)[nH]c(=O)n2C [Theobromine] showed an activity at 100 µM [1, 5] of 117%, an activity at 100 µM [1, 6] of 117% and an activity at 100 µM [2, 5] of 101%. For the same molecule, the activity at 100 µM [2, 6] was 101%, the “MTT (% of ctl)” value [3, 5] was 97.2 % of ctl and the “MTT (% of ctl)” value [3, 7] was 97.2 % of ctl. For the same molecule, the “LDH (% of ctl)” value [4, 5] was 118.3 % of ctl and the “LDH (% of ctl)” value [4, 7] was 118.3 % of ctl.

CC(C)(C)NC[C@H](O)COc1nsnc1N1CCOCC1 [Timolol Maleate] gave an activity at 100 µM [1, 5] of 104%, an activity at 100 µM [1, 6] of 104% and an activity at 100 µM [2, 5] of 101%. For the same molecule, the activity at 100 µM [2, 6] was 101%, the “MTT (% of ctl)” value [3, 5] was 99.2 % of ctl and the “MTT (% of ctl)” value [3, 7] was 99.2 % of ctl. The “LDH (% of ctl)” value [4, 5] was 104.4 % of ctl and the “LDH (% of ctl)” value [4, 7] was 104.4 % of ctl.

For CCOC(=O)NNc1nncc2ccccc12 [Todralazine Hydrochloride], the activity at 100 µM [1, 5] was 110%, the activity at 100 µM [1, 6] was 110% and the activity at 100 µM [2, 5] was 105%. The activity at 100 µM [2, 6] was 105%, the “MTT (% of ctl)” value [3, 5] was 99.5 % of ctl and the “MTT (% of ctl)” value [3, 7] was 99.5 % of ctl. The “LDH (% of ctl)” value [4, 5] was 100.6 % of ctl and the “LDH (% of ctl)” value [4, 7] was 100.6 % of ctl.

Molecule c1ccc(CC2=NCCN2)cc1 [Tolazoline Hydrochloride] has an activity at 100 µM [1, 5] of 99.6%, an activity at 100 µM [1, 6] of 99.6% and an activity at 100 µM [2, 5] of 90.8%. For the same molecule, the activity at 100 µM [2, 6] was 90.8%, the “MTT (% of ctl)” value [3, 5] was 97.5 % of ctl and the “MTT (% of ctl)” value [3, 7] was 97.5 % of ctl. The “LDH (% of ctl)” value [4, 5] was 112.5 % of ctl and the “LDH (% of ctl)” value [4, 7] was 112.5 % of ctl.

Cc1cccc(Nc2ccncc2S(=O)(=O)NC(=O)NC(C)C)c1 [Torsemide] gave an activity at 100 µM [1, 5] of 104%, an activity at 100 µM [1, 6] of 104% and an activity at 100 µM [2, 5] of 107%. For the same molecule, the activity at 100 µM [2, 6] was 107%, the “MTT (% of ctl)” value [3, 5] was 99.2 % of ctl and the “MTT (% of ctl)” value [3, 7] was 99.2 % of ctl. The “LDH (% of ctl)” value [4, 5] was 107.5 % of ctl and the “LDH (% of ctl)” value [4, 7] was 107.5 % of ctl.

CCOC(=O)[C@H](CCc1ccccc1)N[C@@H](C)C(=O)N1[C@H](C(=O)O)C[C@H]2CCCC[C@@H]21 [Trandolapril] was tested, and the activity at 100 µM [1, 5] was 111%, the activity at 100 µM [1, 6] was 111% and the activity at 100 µM [2, 5] was 137%. For the same molecule, the activity at 100 µM [2, 6] was 137%, the “MTT (% of ctl)” value [3, 5] was 91.5 % of ctl and the “MTT (% of ctl)” value [3, 7] was 91.5 % of ctl. The “LDH (% of ctl)” value [4, 5] was 95.5 % of ctl and the “LDH (% of ctl)” value [4, 7] was 95.5 % of ctl.

In the case of NC[C@H]1CC[C@H](C(=O)O)CC1 [Tranexamic Acid], the activity at 100 µM [1, 5] is reported as 53.9%, the activity at 100 µM [1, 6] is reported as 53.9% and the “reducing Aβ1-42” value ([1]; primary screening) is reported as “useful in reducing Aβ1-42”. For the same molecule, the activity at 100 µM [2, 5] was 84.9%, the activity at 100 µM [2, 6] was 84.9% and the “reduced Aβ1-40” value ([2]; primary screening) was “reduced Aβ1-40”. For the same molecule, the “MTT (% of ctl)” value [3, 5] was 96.8 % of ctl, the “MTT (% of ctl)” value [3, 7] was 96.8 % of ctl and the “LDH (% of ctl)” value [4, 5] was 112.8 % of ctl. For the same molecule, the “LDH (% of ctl)” value [4, 7] was 112.8 % of ctl.

With Nc1nc(N)c2nc(-c3ccccc3)c(N)nc2n1 [Triamterene] the activity at 100 µM [1, 5] was 64.2%, the activity at 100 µM [1, 6] was 64.2% and the “reducing Aβ1-42” value ([1]; primary screening) was “useful in reducing Aβ1-42”. The activity at 100 µM [2, 5] was 85.1%, the activity at 100 µM [2, 6] was 85.1% and the “MTT (% of ctl)” value [3, 5] was 93.8 % of ctl. For the same molecule, the “MTT (% of ctl)” value [3, 7] was 93.8 % of ctl, the “LDH (% of ctl)” value [4, 5] was 103.3 % of ctl and the “LDH (% of ctl)” value [4, 7] was 103.3 % of ctl.

With NS(=O)(=O)c1cc2c(cc1Cl)NC(C(Cl)Cl)NS2(=O)=O (stereo not drawn) [Trichlormethiazide] the activity at 100 µM [1, 5] was 84.5%, the activity at 100 µM [1, 6] was 84.5% and the “reducing Aβ1-42” value ([1]; primary screening) was “useful in reducing Aβ1-42”. The activity at 100 µM [2, 5] was 89.3%, the activity at 100 µM [2, 6] was 89.3% and the “MTT (% of ctl)” value [3, 5] was 105.5 % of ctl. The “MTT (% of ctl)” value [3, 7] was 105.5 % of ctl, the “LDH (% of ctl)” value [4, 5] was 102.6 % of ctl and the “LDH (% of ctl)” value [4, 7] was 102.6 % of ctl.

With COc1ccccc1N1CCN(CCCNc2cc(=O)n(C)c(=O)n2C)CC1 [Urapidil] the activity at 100 µM [1, 5] was 114%, the activity at 100 µM [1, 6] was 114% and the activity at 100 µM [2, 5] was 96.4%. The activity at 100 µM [2, 6] was 96.4%, the “MTT (% of ctl)” value [3, 5] was 103.4 % of ctl and the “MTT (% of ctl)” value [3, 7] was 103.4 % of ctl. For the same molecule, the “LDH (% of ctl)” value [4, 5] was 97.1 % of ctl and the “LDH (% of ctl)” value [4, 7] was 97.1 % of ctl.

CC[C@]12CCCN3CCc4c(n(c5ccccc45)[C@@](O)(C(=O)OC)C1)[C@@H]32 [Vincamine] was tested, and the activity at 100 µM [1, 5] was 104%, the activity at 100 µM [1, 6] was 104% and the activity at 100 µM [2, 5] was 99.1%. The activity at 100 µM [2, 6] was 99.1%, the “MTT (% of ctl)” value [3, 5] was 98.5 % of ctl and the “MTT (% of ctl)” value [3, 7] was 98.5 % of ctl. The “LDH (% of ctl)” value [4, 5] was 96.4 % of ctl and the “LDH (% of ctl)” value [4, 7] was 96.4 % of ctl.

Work on CCOC(=O)C1=C[C@]2(CC)CCCN3CCc4c(n1c1ccccc41)[C@@H]32 [Vinpocetine] yielded an activity at 100 µM [1, 5] of 105%, an activity at 100 µM [1, 6] of 105% and an activity at 100 µM [2, 5] of 60.4%. The activity at 100 µM [2, 6] was 60.4%, the “reduced Aβ1-40” value ([2]; primary screening) was “reduced Aβ1-40” and the “MTT (% of ctl)” value [3, 5] was 87.7 % of ctl. The “MTT (% of ctl)” value [3, 7] was 87.7 % of ctl, the “LDH (% of ctl)” value [4, 5] was 111.3 % of ctl and the “LDH (% of ctl)” value [4, 7] was 111.3 % of ctl.

With CC(=O)CC(c1ccccc1)c1c(O)c2ccccc2oc1=O (stereo not drawn) [Warfarin] the activity at 100 µM [1, 5] was 107%, the activity at 100 µM [1, 6] was 107% and the activity at 100 µM [2, 5] was 89.4%. For the same molecule, the activity at 100 µM [2, 6] was 89.4%, the “MTT (% of ctl)” value [3, 5] was 100.1 % of ctl and the “MTT (% of ctl)” value [3, 7] was 100.1 % of ctl. For the same molecule, the “LDH (% of ctl)” value [4, 5] was 106.6 % of ctl and the “LDH (% of ctl)” value [4, 7] was 106.6 % of ctl.

With Phenylbutyrate Sodium the “Ab1-42 (% of ctl)” value [1, 5] was 86.6 % of ctl, the “Ab1-42 (% of ctl)” value [1, 6] was 86.6 % of ctl and the “Ab1-40 (% of ctl)” value [2, 5] was 102.1 % of ctl. The “Ab1-40 (% of ctl)” value [2, 6] was 102.1 % of ctl, the “MTT (% of ctl)” value [3, 5] was 70.2 % of ctl and the “MTT (% of ctl)” value [3, 7] was 70.2 % of ctl. The “LDH (% of ctl)” value [4, 5] was 192.3 % of ctl and the “LDH (% of ctl)” value [4, 7] was 192.3 % of ctl.
